Test results from ChEMBL document CHEMBL1914379, “Challenges of drug discovery in novel target space. The discovery and evaluation of PF-3893787: a novel histamine H4 receptor antagonist” (Bioorg Med Chem Lett, 2011).
Active and inactive are the calls of the source. No cut-off for these calls is given here.

How the values were obtained:
[1] = Metabolic stability in rat liver microsomes; format: ADME, Microsome; details: read-out: Stability
[2] = test system: Rattus norvegicus; assay: Toxicity in po dosed rat assessed as lymphoid depletion from thymus for 4 days; format: organism-based; details: in vivo, 96 h
[3] = test system: Canis familiaris; assay: Toxicity in dog assessed as adverse events dosed orally for 7 days; format: organism-based, Canis lupus familiaris; details: in vivo, po, 168 h
[4] = test system: Rattus norvegicus; assay: Toxicity in po dosed rat assessed as decrease in erythropoiesis for 4 days; format: organism-based, Erythrocyte; details: in vivo, 96 h
[5] = biological target: T1, Histamine H4 receptor (Homo sapiens, UniProt Q9H3N8); assay: Antagonist activity at full length human H4R expressed in HEK293 cells assessed as reversal of forskolin-induced cAMP production by CRE-beta-lactamase reporter gene assay; format: functional, cell-based
[6] = test system: Rattus norvegicus; assay: Toxicity in po dosed rat assessed as lymphoid depletion from spleen for 4 days; format: organism-based; details: in vivo, 96 h
[7] = test system: Rattus norvegicus; assay: Toxicity in po dosed rat assessed as decrease in reticulocyte counts for 4 days; format: organism-based; details: in vivo, 96 h
[8] = test system: Rattus norvegicus; assay: Toxicity in po dosed rat assessed as lymphoid depletion from gut for 4 days; format: organism-based; details: in vivo, 96 h
[9] = biological target: T1, Histamine H4 receptor; assay: Displacement of [3H]-histamine from full length human H4R expressed in HEK293 cells; format: cell-based
[10] = test system: Rattus norvegicus; assay: Toxicity in rat assessed as bone marrow cytology changes at high dose, po for 7 days; format: organism-based; details: in vivo, 168 h
[11] = test system: Rattus norvegicus; assay: Toxicity in rat assessed as vacuolation at high dose, po for 7 days; format: organism-based; details: in vivo, 168 h
[12] = Displacement of [3H]-histamine from dog H4R expressed in HEK293T cells; format: cell-based, Canis lupus familiaris; details: hek-293t
[13] = test system: HEK-293T; assay: Agonist activity at dog H4R expressed in HEK293T cells assessed as reversal of forskolin-induced cAMP production by CRE-beta-lactamase reporter gene assay; format: functional, cell-based; details: Canis lupus familiaris
[14] = Lipophilicity, log D of the compound; format: physicochemical; details: octanol/water
[15] = Metabolic stability in human liver microsomes; format: ADME, Microsome; details: read-out: Stability
[16] = Displacement of [3H]-histamine from macaque H4R expressed in HEK293T cells; format: cell-based, Macaca mulatta; details: hek-293t
[17] = biological target: T2, Histamine H4 receptor (Cavia porcellus) (UniProt Q91ZY3); assay: Agonist activity at guinea pig H4R expressed in HEK293T cells assessed as reversal of forskolin-induced cAMP production by CRE-beta-lactamase reporter gene assay; format: functional, cell-based; details: HEK-293T
T2 sequence (whole entry): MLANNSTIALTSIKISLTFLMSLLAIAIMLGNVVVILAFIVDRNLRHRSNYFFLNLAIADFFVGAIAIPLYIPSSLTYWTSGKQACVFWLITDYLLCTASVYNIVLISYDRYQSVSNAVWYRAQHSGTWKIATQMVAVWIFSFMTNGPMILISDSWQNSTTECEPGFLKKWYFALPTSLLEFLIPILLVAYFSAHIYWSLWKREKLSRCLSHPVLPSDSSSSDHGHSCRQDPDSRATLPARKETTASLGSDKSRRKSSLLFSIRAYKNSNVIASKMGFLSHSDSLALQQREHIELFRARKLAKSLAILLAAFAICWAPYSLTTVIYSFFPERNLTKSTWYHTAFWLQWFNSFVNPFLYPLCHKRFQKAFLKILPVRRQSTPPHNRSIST

[18] = test system: HEK-293T; assay: Agonist activity at macaque H4R expressed in HEK293T cells assessed as reversal of forskolin-induced cAMP production by CRE-beta-lactamase reporter gene assay; format: functional, cell-based; details: Macaca mulatta
[19] = test system: Liver microsomes; assay: Metabolic stability in human liver microsomes assessed as reactive metabolite generation; format: ADME, Microsome
[20] = biological target: T1, Histamine H4 receptor; assay: Antagonist activity at full length human H4R expressed in HEK293 cells assessed as inhibition of forskolin-induced cAMP responsive element-beta-lactamase activity at 15 uM; format: functional, cell-based
[21] = Blood clearance in dog at 3 mg/kg, iv; format: ADME, organism-based, Canis lupus familiaris; set-up: dose 3 mg/kg, route intravenous
[22] = Half life in rat at 1 mg/kg, iv and 1 mg/kg, po; format: ADME, organism-based; details: in vivo
[23] = Volume of distribution in dog blood at 3 mg/kg, iv; format: ADME, organism-based, Canis lupus familiaris; set-up: dose 3 mg/kg, route intravenous
[24] = Oral bioavailability in rat at 1 mg/kg; format: ADME, organism-based; details: in vivo
[25] = Volume of distribution in rat blood at 1 mg/kg, iv and 1 mg/kg, po; format: ADME, organism-based
[26] = Blood clearance in rat at 1 mg/kg, iv and 1 mg/kg, po; format: ADME, organism-based
[27] = Half life in dog at 3 mg/kg, iv; format: ADME, organism-based, Canis lupus familiaris; set-up: dose 3 mg/kg, route intravenous; details: in vivo

T1 sequence (Q9H3N8 whole entry): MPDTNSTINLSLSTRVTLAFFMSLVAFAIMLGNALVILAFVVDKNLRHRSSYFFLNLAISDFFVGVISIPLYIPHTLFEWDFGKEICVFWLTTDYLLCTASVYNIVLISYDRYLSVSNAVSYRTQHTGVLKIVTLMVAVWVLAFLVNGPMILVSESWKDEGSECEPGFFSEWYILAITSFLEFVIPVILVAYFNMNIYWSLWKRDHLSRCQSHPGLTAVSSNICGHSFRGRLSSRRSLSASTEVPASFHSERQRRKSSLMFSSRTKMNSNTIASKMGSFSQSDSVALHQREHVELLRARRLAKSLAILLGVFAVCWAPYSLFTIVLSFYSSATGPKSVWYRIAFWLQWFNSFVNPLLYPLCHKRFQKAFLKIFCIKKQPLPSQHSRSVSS

Structure (SMILES) | microsomal CLint [1] [µL/min/mg] | Activity [2] | Activity [3] | Activity [4] | Ki [5] [nM] | Activity [6] | Activity [7] | Activity [8] | Ki [9] [nM] | Activity [11] | logD [14] | microsomal CLint [15] [µL/min/mg] | also measured
CNC1CN(c2cc(NCCC(C)(C)C)nc(N)n2)C1 | 33 | Non-toxic | Non-toxic | Non-toxic | 1.5 | Non-toxic | Non-toxic | Non-toxic | – | – | – | – | –
CNC1CN(c2cc(NCc3cccc(F)c3)nc(N)n2)C1 | < 8.5 | – | – | – | 13 | – | – | – | 18 | Toxic | – | – | Activity [10]: Toxic
CN1CCN(C(=O)c2cc3cc(Cl)ccc3[nH]2)CC1 [JNJ-7777120] | 61 | – | – | – | – | – | – | – | – | – | 2.6 | 28 | pKi [12]: 6.89; Activity [13]: Active; pKi [16]: 7.17; Activity [17]: Active; Activity [18]: Active
CN1C[C@@H]2CN(C(=O)c3cc4cc(Cl)ccc4[nH]3)C[C@@H]2C1 | 36 | – | – | – | 27 | – | – | – | – | – | – | 7 | Stability [19]: Unstable
CC(C)(C)CCNc1cc(NC2CCN(Cc3ccc(CO)o3)C2)ncn1 (racemic) | – | – | – | – | – | – | – | – | – | – | – | – | inhibition [20]: 73%
CNC1CN(c2cc(NCC(C)(C)C)nc(N)n2)C1 | < 8.5 | Non-toxic | Non-toxic | Non-toxic | 0.034 | Non-toxic | Non-toxic | Non-toxic | 1.7 | Toxic | 0.7 | < 7 | clearance [21]: 1.8 L/h/kg; half-life [22]: 6.9 h; Vd [23]: 48 L/kg; bioavailability [24]: 57%; Vd [25]: 49 L/kg; clearance [26]: 4.62 L/h/kg; half-life [27]: 19 h
